Test results from US11753404B2, “Aminothiazole compounds as c-Kit inhibitors” (Ariad Pharmaceuticals, Inc., priority 2016, dated 2023).

How the values were obtained:
Assay in all cases: c-Kit assay: Ba/F3 KIT mutant cell viability (Cell Titer-Glo, 72 hours)
Format in all cases: cell-based
Settings in all cases: viability after 72 hours
[1] = target: T1, BAF3 FL KIT EX11DEL/D816H (Homo sapiens, UniProt P10721, D816H, cells depend on it, form not given)
T1 construct: BAF3 FL KIT EX11DEL/D816H
Procedure: (§1) Generation of DBa/F3 KIT Mutant Engineered Cell Lines
(§2) KIT cDNAs were synthesized by GenScript and cloned into the pLVX-IRES-Puro vector (Clontech). Viral particles were produced by transfecting pLVX-IRES-puro vectors containing KIT mutant genes into HEK293 cells (Invitrogen) using the Trans-Lentiviral ORF Packaging Kit (Thermo Scientific). 48 hours post-transfection, virus-containing supernatants were harvested and incubated for another 48-72 hours with parental Ba/F3 cells (DSMZ) in the presence of 10 ng/mL IL-3 (R&D Systems). Transduced Ba/F3 cells were then selected by IL-3 withdrawal and puromycin (0.5-1 μg/mL, Invitrogen).
(§3) Cell lines (e.g., EX11DEL, EX11DEL/D816H, EX11DEL/T670I, and EX11DEL/V654A) were plated into 384 well plates using RPMI 1640 supplemented with 10% FBS at densities that produced linear growth and incubated at 37° C. in 5% (v/v) CO2. Cells were treated with eight concentrations of compound over a 4-fold dilution (10 μM to 0.61 nM) and viability was assessed using Cell Titer-Glo assay (Promega) after 72 hours. Data were plotted as percent viability relative to vehicle-treated cells. Dose-responses curves were generated and used to calculate IC50 values.

[2] = target: T2, BAF3 FL KIT EX11DEL/V654A (Homo sapiens, UniProt P10721, V654A, cells depend on it, form not given)
T2 construct: BAF3 FL KIT EX11DEL/V654A
T2 sequence (P10721 with tags, fused parts or gaps DEL557-558/V654A, form open): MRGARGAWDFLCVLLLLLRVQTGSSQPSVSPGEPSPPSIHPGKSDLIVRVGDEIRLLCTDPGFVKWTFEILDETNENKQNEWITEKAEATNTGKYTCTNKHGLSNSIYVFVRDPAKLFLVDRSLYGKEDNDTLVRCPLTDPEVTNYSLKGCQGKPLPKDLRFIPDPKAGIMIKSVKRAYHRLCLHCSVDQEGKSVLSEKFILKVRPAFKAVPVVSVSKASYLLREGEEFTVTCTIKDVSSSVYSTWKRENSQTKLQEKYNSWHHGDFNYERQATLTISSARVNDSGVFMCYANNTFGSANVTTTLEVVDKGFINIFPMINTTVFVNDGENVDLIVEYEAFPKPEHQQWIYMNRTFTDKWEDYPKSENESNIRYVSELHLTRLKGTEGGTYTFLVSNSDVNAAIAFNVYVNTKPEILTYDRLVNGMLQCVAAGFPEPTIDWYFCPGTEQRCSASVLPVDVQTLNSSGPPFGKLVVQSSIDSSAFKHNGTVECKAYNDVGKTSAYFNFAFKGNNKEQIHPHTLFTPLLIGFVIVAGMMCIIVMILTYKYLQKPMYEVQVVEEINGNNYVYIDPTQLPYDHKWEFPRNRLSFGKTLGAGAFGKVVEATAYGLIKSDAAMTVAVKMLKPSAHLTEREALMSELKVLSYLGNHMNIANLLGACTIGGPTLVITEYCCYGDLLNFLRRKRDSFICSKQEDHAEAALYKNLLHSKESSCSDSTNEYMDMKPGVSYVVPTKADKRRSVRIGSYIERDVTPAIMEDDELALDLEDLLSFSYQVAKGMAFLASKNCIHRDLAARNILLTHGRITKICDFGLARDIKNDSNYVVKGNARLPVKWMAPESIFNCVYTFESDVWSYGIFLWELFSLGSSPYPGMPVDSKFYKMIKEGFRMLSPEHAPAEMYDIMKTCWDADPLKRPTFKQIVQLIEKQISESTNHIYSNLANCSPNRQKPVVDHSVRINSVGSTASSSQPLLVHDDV
Procedure: as §1, §2, §3

BAF3 FL KIT EX11DEL = target: T3, BAF3 FL KIT EX11DEL (Homo sapiens, UniProt P10721, cells depend on it, form not given)
T3 construct: BAF3 FL KIT EX11DEL
T3 sequence (P10721 with tags, fused parts or gaps DEL557-558): as the sequence (P10721 with tags, fused parts or gaps DEL557-558/V654A, form open) above, with A652V counted along it
Procedure: as §1, §2, §3

[3] = target: T4, BAF3 FL KIT EX11DEL/T670I (Homo sapiens, UniProt P10721, T670I, cells depend on it, form not given)
T4 construct: BAF3 FL KIT EX11DEL/T670I
T4 sequence (P10721 with tags, fused parts or gaps DEL557-558/T670I, form open): as the sequence (P10721 with tags, fused parts or gaps DEL557-558/V654A, form open) above, with A652V, T668I counted along it
Procedure: as §1, §2, §3

T1 sequence (P10721 with tags, fused parts or gaps DEL557-558/D816H, form open): as the sequence (P10721 with tags, fused parts or gaps DEL557-558/V654A, form open) above, with A652V, D814H counted along it

Structure (SMILES) | GI50 [1] | GI50 [2] | GI50 (BAF3 FL KIT EX11DEL) | GI50 [3]
Cc1ccc(C(=O)Nc2cc(C(F)(F)F)ccn2)cc1C#Cc1cnc(NC(=O)C(C)(C)C)s1 [I-52, 4-methyl-3-((2-pivalamidothiazol-5-yl)ethynyl)-N-(4-(trifluoromethyl)pyridin-2-yl)benzamide] | 0.1 to 10 µM | 0.1 to 10 µM | 0.01 to 0.05 µM | 0.1 to 10 µM
Cc1ccc(C(=O)Nc2cc(C(F)(F)F)ccn2)cc1C#Cc1cnc(NC(=O)N2CCN(C)CC2)s1 [I-23, 4-methyl-N-(5-((2-methyl-5-((4-(trifluoromethyl)pyridin-2-yl)carbamoyl)phenyl)ethynyl)thiazol-2-yl)piperazine-1-carboxamide] | 0.01 to 0.05 µM | 0.01 to 0.05 µM | < 0.01 µM | < 0.01 µM
CNC(=O)Nc1ncc(C#Cc2cccc(C(=O)Nc3cc(C(F)(F)F)ccn3)c2)s1 [I-44, 3-((2-(3-methylureido)thiazol-5-yl)ethynyl)-N-(4-(trifluoromethyl)pyridin-2-yl)benzamide] | 0.01 to 0.05 µM | 0.01 to 0.05 µM | < 0.01 µM | < 0.01 µM
CC(=O)Nc1ncc(C#Cc2cc(C(=O)Nc3cc(C(F)(F)F)ccn3)ccc2C)s1 [I-51, 3-((2-acetamidothiazol-5-yl)ethynyl)-4-methyl-N-(4-(trifluoromethyl)pyridin-2-yl)benzamide] | 0.01 to 0.05 µM | 0.01 to 0.05 µM | < 0.01 µM | 0.01 to 0.05 µM
Cc1ccc(C(=O)Nc2cc(C(F)(F)F)ccn2)cc1C#Cc1cnc(NC(=O)N(C)CCO)s1 [I-10, 3-((2-(3-(2-hydroxyethyl)-3-methylureido)thiazol-5-yl)ethynyl)-4-methyl-N-(4-(trifluoromethyl)pyridin-2-yl)benzamide] | < 0.01 µM | < 0.01 µM | < 0.01 µM | < 0.01 µM
Cc1ccc(C(=O)Nc2cc(C(F)(F)F)ccn2)cc1C#Cc1cnc(NC(=O)N2CCOC(CN(C)C)C2)s1 (stereo not drawn) [I-34, 2-((dimethylamino)methyl)-N-(5-((2-methyl-5-((4-(trifluoromethyl)pyridin-2-yl)carbamoyl)phenyl)ethynyl)thiazol-2-yl)morpholine-4-carboxamide] | 0.01 to 0.05 µM | 0.01 to 0.05 µM | < 0.01 µM | 0.01 to 0.05 µM
CNCCN(C)C(=O)Nc1ncc(C#Cc2cc(C(=O)Nc3cc(C(F)(F)F)ccn3)ccc2C)s1 [I-28, 4-methyl-3-((2-(3-methyl-3-(2-(methylamino)ethyl)ureido)thiazol-5-yl)ethynyl)-N-(4-(trifluoromethyl)pyridin-2-yl)benzamide] | 0.01 to 0.05 µM | 0.01 to 0.05 µM | < 0.01 µM | 0.01 to 0.05 µM
Cc1ccc(C(=O)Nc2cc(C(F)(F)F)ccn2)cc1C#Cc1cnc(NC(=O)N(C)C2CCC(O)CC2)s1 (stereo not drawn) [I-22, 3-((2-(3-(4-hydroxycyclohexyl)-3-methylureido)thiazol-5-yl)ethynyl)-4-methyl-N-(4-(trifluoromethyl)pyridin-2-yl)benzamide] | < 0.01 µM | < 0.01 µM | < 0.01 µM | < 0.01 µM
Cc1ccc(C(=O)Nc2cc(C(F)(F)F)ccn2)cc1C#Cc1cnc(NC(=O)N2CCOCC2)s1 [I-35, N-(5-((2-methyl-5-((4-(trifluoromethyl)pyridin-2-yl)carbamoyl)phenyl)ethynyl)thiazol-2-yl)morpholine-4-carboxamide] | < 0.01 µM | 0.01 to 0.05 µM | < 0.01 µM | < 0.01 µM
Cc1ccc(NC(=O)c2cc(C(F)(F)F)ccn2)cc1C#Cc1cnc(NC(=O)N(C)CCN2CCN(C)CC2)s1 [I-55, N-(4-methyl-3-((2-(3-methyl-3-(2-(4-methylpiperazin-1-yl)ethyl)ureido)thiazol-5-yl)ethynyl)phenyl)-4-(trifluoromethyl)picolinamide] | 0.01 to 0.05 µM | 0.01 to 0.05 µM | – | 0.05 to 0.1 µM
Cc1ccc(NC(=O)c2cc(C(F)(F)F)ccn2)cc1C#Cc1cnc(NC(=O)N(C)C2CCN(C)CC2)s1 [I-53, N-(4-methyl-3-((2-(3-methyl-3-(I-methylpiperidin-4-yl)ureido)thiazol-5-yl)ethynyl)phenyl)-4-(trifluoromethyl)picolinamide] | 0.01 to 0.05 µM | 0.01 to 0.05 µM | – | 0.05 to 0.1 µM
